Experimental data from article PMC7451656, “In vitro and in vivo growth inhibitory activities of cryptolepine hydrate against several Babesia species and Theileria equi” (PLoS Neglected Tropical Diseases, 2020).

What was measured:
[1] = test system: Madin–Darby bovine kidney (MDBK) cell line; experiment: cells; format: cell-based; conditions: for EC50: Bos taurus, MDBK, 24 h, cell viability, CCK-8
Description: (§1) Madin–Darby bovine kidney (MDBK) (ECACC), mouse embryonic fibroblast (NIH/3T3 ATCC CRL-1658) and Human foreskin fibroblast (HFF HFF-1 ATCC SCRC-1041) cell lines were recovered from -80°C stock and cultured continuously in our laboratory at 37°C in a humidified incubator with 5% CO2. In 75 cm^2 culture flasks, NIH/3T3 and HFF cell lines were maintained with Dulbecco’s Modified Eagle’s Medium (DMEM; Gibco, Grand Island, NY, USA), while the MDBK cell line was maintained with Minimum Essential Medium Eagle (MEM; Gibco). Ten percent fetal bovine serum, 1% glutamine, and 0.5% penicillin/streptomycin (Gibco) were added to all media and the cells were stained with 4, 6-diamidino-2-phenylindole dihydrochloride (DAPI; Sigma-Aldrich, St. Louis, MO, USA) to ensure that they were free from mycoplasma contamination. Afterward, the cells were washing twice with Dulbecco’s phosphate-buffered saline and TrypLE Express (Gibco) was used for cell detachment from the culture flask. Finally, Neubauer improved C-Chip (NanoEntek Inc., Seoul, Korea) was used for counting the viable cells after staining with 0.4% trypan blue solution.
(§2) The cytotoxicity assay was performed in accordance with the previously described protocol. Briefly, the assay was carried out using 96-well plates at 37 °C in a humidified incubator with 5% CO2, 100 μl of cells at a density of 5 x 10^4 cells/ml was seeded per well and allowed to attach to the plate for 24 h. Ten microliters of twofold drug dilutions was added to each well to a final concentration of 0.781 to 100 μM in triplicate and incubated for another 24 h. Ten μl of Cell Counting Kits-8 (CCK-8; Dojindo, Japan) was added to each well and incubated for another 3 h, and the absorbance was measured at 450 nm using a microplate reader.

[2] = test system: mouse embryonic fibroblast (NIH/3T3) cell line; experiment: cells; format: cell-based; conditions: for EC50: Mus musculus, NIH3T3, cell viability, NIH/3T3, 24 h, CCK-8
Description: as §1, §2

[3] = test system: human foreskin fibroblast (HFF) cell line; experiment: cells; format: cell-based; conditions: for EC50: Homo sapiens, cell viability, HFF, 24 h, CCK-8
Description: as §1, §2

P. berghei = test system: P. berghei; parameters: method as in PMID 11543688; conditions: no apparent toxicity; cited from earlier work
equine RBCs / B. caballi = experiment: Growth of B. caballi with CRY-treated horse RBCs; format: cell-based, Babesia caballi; conditions: equine RBCs pre-incubated with 1 and 10 μM CRY for 3 and 6 h, 4 days
Description: (§3) To investigate the hemolytic effect of CRY on host (bovine or equine) RBCs, bovine and equine RBCs were incubated with 1 and 10 μM of CRY for 3 and 6 h. The RBCs were washed thrice with phosphate-buffered saline (PBS) and mixed with B. divergens and B. caballi infected RBCs (iRBCs, recovered from −80 °C stock at our laboratory) harvested with a parasitemia of 8% and 3%, respectively and adjusted to 1% parasitemia with fresh RBCs. In a 24-well plate, 100 μl of iRBCs was added to 900 μl of complete medium and the parasite growth was monitored daily by microscopic examination of a Giemsa-stained blood smear for 4 days.

[4] = test system: bovine RBCs / B. divergens; experiment: Growth of B. divergens with CRY-treated bovine RBCs; format: cell-based, Babesia divergens; conditions: bovine RBCs pre-incubated with 1 and 10 μM CRY for 3 and 6 h, 4 days
Description: as §3

[5] = Hematology profiles, body weight and adverse effects of treated B. microti-infected mice; format: in vivo; conditions: CRY administered i.p.
Description: The promising effect of CRY in vitro encouraged us to evaluate its in vivo effects against B. microti in mice. The assay was conducted in accordance with the previously described protocol. In two separate trials, 35 female 8-week-old BALB/c mice, housed under a pathogen-free environment with controlled humidity, temperature (22°C) and a 12 h light/ dark cycle were caged in seven groups, each group consisting of five mice. Six groups were i.p. injected with 0.5 ml of inoculum (1×10^7 B. microti iRBCs), while the seventh group was left uninfected and untreated to act as a negative control. When the average parasitemia in all infected mice reached approximately 1%, the 5-day drug treatment was initiated. […] Parasitemia and hematology profiles (RBCs, hemoglobin (HGB), and HCT) were monitored every 2 and 4 days by microscopic examination and hematology analyzer (Celltac α MEK-6450, Nihon Kohden Corporation, Tokyo, Japan), respectively. […]
The IC50 values of CRY, DA, CF, and AQ were determined using the nonlinear regression curve fit in GraphPad Prism (GraphPad Software Inc., San Diego, CA, USA). Combination index (CI) values for the drug combination were calculated using CompuSyn software, and the degree of synergism was determined as the weighted average of CI values using a formula [(1 x IC50) + (2 x IC75) + (3 x IC90) + (4 x IC95)]/10 [30]. […]

O=C1C(O)=C([C@H]2CC[C@H](c3ccc(Cl)cc3)CC2)C(=O)c2ccccc21 [AQ, atovaquone]
inhibition of cell line at 100 μM [1]: did not show any inhibition
EC50 [1]: > 100 µM
inhibition of cell line at 100 μM [2]: did not show any inhibition
EC50 [2]: > 100 µM
inhibition of cell line at 100 μM [3]: did not show any inhibition
EC50 [3]: > 100 µM

Cn1c2c3ccccc3nc-2cc2ccccc21 [CRY, Cryptolepine hydrate]
suppression of P. berghei parasitemia in mice (P. berghei): 80.5%
multiplication of B. caballi, CRY-treated RBCs versus normal RBCs (equine RBCs / B. caballi): did not significantly differ
multiplication of B. divergens, CRY-treated RBCs versus normal RBCs [4]: did not significantly differ
adverse effects in mice [5]: no apparent adverse effects
EC50 [1]: 86.7 ± 4.43 µM
EC50 [2]: 95.3 ± 2.7 µM
inhibition of cell line at 100 μM [3]: did not show any inhibition
EC50 [3]: > 100 µM
